Converted amounts (≈) assume the structure as drawn. Read-outs that look alike come from different tables or passages of the source. Blank lines part the entries; values can stand above or below the molecule they belong to.
Legend:
[1] = system: S. aureus 1333 (MSSA); assay: MIC/MBC by broth microdilution reference method; type: cell-based, Staphylococcus aureus; settings: Staphylococcus aureus
[2] = system: S. aureus 1334 (MSSA); assay: MIC/MBC by broth microdilution reference method; type: cell-based, Staphylococcus aureus; settings: Staphylococcus aureus
[3] = system: S. aureus 1814 (MRSA); assay: MIC/MBC by broth microdilution reference method; type: cell-based, Staphylococcus aureus; settings: Staphylococcus aureus
[4] = system: S. aureus 1815 (MRSA); assay: MIC/MBC by broth microdilution reference method; type: cell-based, Staphylococcus aureus; settings: Staphylococcus aureus
[5] = system: S. aureus 1816 (MSSA); assay: MIC/MBC by broth microdilution reference method; type: cell-based, Staphylococcus aureus; settings: Staphylococcus aureus
[6] = system: S. aureus 1817 (MSSA); assay: MIC/MBC by broth microdilution reference method; type: cell-based, Staphylococcus aureus; settings: Staphylococcus aureus
[7] = system: S. aureus 1818 (MSSA); assay: MIC/MBC by broth microdilution reference method; type: cell-based, Staphylococcus aureus; settings: Staphylococcus aureus
[8] = system: S. aureus ATCC 29213 (MSSA reference strain); assay: MIC/MBC by broth microdilution reference method; type: cell-based, Staphylococcus aureus; settings: Staphylococcus aureus
[9] = system: all S. aureus isolates; assay: MIC/MBC by broth microdilution, summary over all isolates; type: cell-based, Staphylococcus aureus; settings: Staphylococcus aureus, read-out: MICs for all S. aureus isolates
[10] = system: intra-osteoblastic S. aureus; assay: Osteoblast infection model (MG-63), intracellular activity; type: cell-based, Staphylococcus aureus; settings: MG-63, all four isolates (2 MSSA and 2 MRSA), 2 x MIC, 3 h after treatment, vs untreated cells
Protocol: The osteoblast infection model was conducted using MG-63 (CRL-1427) osteoblastic cells, following previously published procedures.[19] Briefly, MG-63 cells were cultured at 37°C in a 5% CO2 environment and passaged weekly for up to 20 weeks. The culture medium used was DMEM supplemented with 10% FBS, 25 mM HEPES, 2 mM L-glutamine, with or without antibiotics (100 U/mL penicillin plus 100 mg/L streptomycin). For the assays, MG-63 cells were seeded in 24-well plates until reaching 70%–80% confluence. Bacterial cell suspensions grown overnight in BHI broth were prepared and adjusted to an moi of 50, and then introduced to the osteoblasts. After a 2 h coincubation to facilitate bacterial adhesion, MG-63 cells were rinsed and treated with 100 mg/L gentamicin for 1 h to eliminate extracellular bacterial cells. […] Finally, intracellular bacterial cells were quantified in cellular lysates (following osmotic shock) by plating them onto BHI agar.
(§1) Figure 1. […] Data represent the mean ± SD from three independent experiments. Intracellular cfu counts were normalized relative to untreated cells (depicted by black histograms), and differences between treated and untreated cells, as well as between the two compounds, were assessed using the Mann–Whitney U-test. *P < 0.05; **P < 0.01; ***P < 0.001; ****P < 0.0001.

[11] = system: intra-macrophagic S. aureus; assay: Macrophage infection model (THP-1), intracellular activity; type: cell-based, Staphylococcus aureus; settings: THP-1, MRSA 1814, MRSA 1815, MSSA 1333 and MSSA 1334, 2 x MIC, 24 h after treatment, vs untreated cells
Protocol: The macrophage infection model was performed using the THP-1 human monocytic cell line (ATCC, Rockville, USA). In brief, cells were cultured in the Roswell Park Memorial Institute (RPMI) medium supplemented with 10% FBS in T75 flasks at 37°C and 5% CO2, and were maintained through weekly transfers within passages 2 to 20. For the assays, THP-1 cells were seeded in 12-well plates and differentiated into macrophages with phorbol myristate acetate (PMA) for 72 h until they reached approximately 80% confluence. Bacterial suspensions, grown overnight in BHI, were prepared and adjusted to an moi of 10, and then introduced to the macrophages. After a 2 h coincubation to facilitate bacterial adherence, the cells were washed and treated with 100 mg/L gentamicin for 1 h. […] Finally, intracellular bacterial cells were enumerated from cellular lysates (following osmotic shock) by plating them onto BHI agar. Infected but untreated cells were used as a control in all experiments. The number of cfu in treated cells was standardized as a percentage of the controls.
as §1, with “Figure 2.” for “Figure 1.”, “SD of” for “SD from”, “U-test.” for “U-test. *P < 0.05; **P < 0.01;”

[12] = system: macrophages (THP-1)
Protocol: (§2) In both models, the viability was assessed using the MTT assay to determine the potential cytotoxicity of antimicrobials on untreated and infected/treated cells. Briefly, an MTT solution (0.5 mg/mL) was added to the cell medium without FBS. After washing with PBS and a 30 min incubation at 37°C, the formazan crystals formed were dissolved in DMSO. Absorbance values at 540 nm were measured using a BioTek Synergy 2 microplate reader.

[13] = system: osteoblasts (MG-63)
Protocol: as §2

[14] = system: MSSA 1334; assay: Mouse model of septic arthritis; type: in vivo; settings: MSSA 1334-infected mice, Pep16 10 mg/kg or vancomycin 100 mg/kg subcutaneous daily
Protocol: Female Swiss mice, obtained from Janvier Labs and aged between 11 and 13 weeks with an approximate weight of 34 g, were used. The experiments were conducted in the ARCHE animal facility (Biosit) in Rennes. Mice were inoculated IV with 200 μL of a 0.9% NaCl solution containing approximately 10^8 cfu of the 1334 strain (MSSA). […] These treatments were administered daily for a duration of 7 days. […] The mice were monitored on a daily basis, and on the seventh day, they were humanely euthanized using CO2. Subsequently, knee joints, spleen and kidneys were excised, weighed and homogenized in 0.9% NaCl using a Polytron PT 3100D homogenizer (Kinematica, Switzerland). Bacterial loads were determined by plating serial dilutions onto BHI agar and expressed as log10 cfu/g.
Figure 3. Bacterial loads (in log cfu/g) at Day 7 in knee joints, kidneys and spleen from mice infected by MSSA 1334. Mice were initially inoculated with approximately 1 × 10^8 cfu of MSSA 1334. […] Treatments were administered via subcutaneous injection and continued daily until the conclusion of the experiment. Individual dots on the graph represent cfu counts for single animals (enumerated at Day 7), with black horizontal lines indicating median values. The experiments were performed with five mice per condition, in triplicate for Pep16 and saline solution, and in duplicate for vancomycin. […]

Compound: CCCCCCCCCC(=O)N[C@@H](Cc1c[nH]c2ccccc12)C(=O)N[C@H](CC(N)=O)C(=O)N[C@@H](CC(=O)O)C(=O)N[C@@H]1C(=O)NCC(=O)N[C@@H](CCCN)C(=O)N[C@@H](CC(=O)O)C(=O)N[C@H](C)C(=O)N[C@@H](CC(=O)O)C(=O)NCC(=O)N[C@H](CO)C(=O)N[C@@H]([C@H](C)CC(=O)O)C(=O)N[C@@H](CC(=O)c2ccccc2N)C(=O)O[C@@H]1C [DAP, daptomycin]
- MBC ([1]; MSSA): 0.5 µg/mL (≈ 0.309 µM)
- MIC ([1]; MSSA): 0.25 µg/mL (≈ 0.154 µM)
- MBC ([2]; MSSA): 0.5 µg/mL (≈ 0.309 µM)
- MIC ([2]; MSSA): 0.25 µg/mL (≈ 0.154 µM)
- MBC ([3]; MRSA): 0.5 µg/mL (≈ 0.309 µM)
- MIC ([3]; MRSA): 0.25 µg/mL (≈ 0.154 µM)
- MBC ([4]; MRSA): 0.5 µg/mL (≈ 0.309 µM)
- MIC ([4]; MRSA): 0.25 µg/mL (≈ 0.154 µM)
- MBC ([5]; MSSA): 0.5 µg/mL (≈ 0.309 µM)
- MIC ([5]; MSSA): 0.25 µg/mL (≈ 0.154 µM)
- MBC ([6]; MSSA): 0.5 µg/mL (≈ 0.309 µM)
- MIC ([6]; MSSA): 0.25 µg/mL (≈ 0.154 µM)
- MBC ([7]; MSSA): 0.5 µg/mL (≈ 0.309 µM)
- MIC ([7]; MSSA): 0.25 µg/mL (≈ 0.154 µM)
- MBC [8]: 0.5 µg/mL (≈ 0.309 µM)
- MIC [8]: 0.25 µg/mL (≈ 0.154 µM)
- MIC [9]: 0.25 µg/mL (≈ 0.154 µM)

- MIC ([1]; strain 1333, MSSA multi-susceptible, broth microdilution, read-out: MIC): 0.5 µg/mL (≈ 1.38 µM)
- MIC ([2]; strain 1334, MSSA multi-susceptible, broth microdilution, read-out: MIC): 0.5 µg/mL (≈ 1.38 µM)
- MIC ([3]; strain 1814, MRSA ciprofloxacin resistant, broth microdilution, read-out: MIC): 4 µg/mL (≈ 11.1 µM)
- MIC ([4]; strain 1815, MRSA gentamicin and erythromycin resistant, broth microdilution, read-out: MIC): 0.5 µg/mL (≈ 1.38 µM)
- MIC ([5]; strain 1816, MSSA multi-susceptible, broth microdilution, read-out: MIC): 0.25 µg/mL (≈ 0.692 µM)
- MIC ([6]; strain 1817, MSSA erythromycin resistant, broth microdilution, read-out: MIC): 0.25 µg/mL (≈ 0.692 µM)
- MIC ([7]; strain 1818, MSSA multi-susceptible, broth microdilution, read-out: MIC): 0.25 µg/mL (≈ 0.692 µM)
- MIC ([8]; reference strain ATCC 29213, MSSA, broth microdilution, read-out: MIC): 0.5 µg/mL (≈ 1.38 µM)
- MIC ([9]; summary over all S. aureus isolates of Table 1, broth microdilution): 0.25 to 4 µg/mL (≈ 0.692 to 11.1 µM)
Compound: C[C@H]1COc2c(N3CCN(C)CC3)c(F)cc3c(=O)c(C(=O)O)cn1c23 [LVX, levofloxacin]
- MBC ([1]; strain 1333, MSSA multi-susceptible, broth microdilution, read-out: MBC): 0.5 µg/mL (≈ 1.38 µM)
- MBC ([2]; strain 1334, MSSA multi-susceptible, broth microdilution, read-out: MBC): 0.5 µg/mL (≈ 1.38 µM)
- MBC ([3]; strain 1814, MRSA ciprofloxacin resistant, broth microdilution, read-out: MBC): 4 µg/mL (≈ 11.1 µM)
- MBC ([4]; strain 1815, MRSA gentamicin and erythromycin resistant, broth microdilution, read-out: MBC): 0.5 µg/mL (≈ 1.38 µM)
- MBC ([5]; strain 1816, MSSA multi-susceptible, broth microdilution, read-out: MBC): 0.25 µg/mL (≈ 0.692 µM)
- MBC ([6]; strain 1817, MSSA erythromycin resistant, broth microdilution, read-out: MBC): 0.25 µg/mL (≈ 0.692 µM)
- MBC ([7]; strain 1818, MSSA multi-susceptible, broth microdilution, read-out: MBC): 0.25 µg/mL (≈ 0.692 µM)
- MBC ([8]; reference strain ATCC 29213, MSSA, broth microdilution, read-out: MBC): 0.5 µg/mL (≈ 1.38 µM)
- effect on intracellular bacterial load in osteoblasts [10]: significantly reduced the bacterial load
- effect on intracellular inoculum in macrophages [11]: significantly reducing the intracellular inoculum
- direct cytotoxicity on uninfected macrophages (MTT) [12]: no significant direct cytotoxicity
- direct cytotoxicity on uninfected osteoblasts (MTT) [13]: did not observe any significant direct cytotoxicity

Compound: CN[C@H](CC(C)C)C(=O)N[C@H]1C(=O)N[C@@H](CC(N)=O)C(=O)N[C@H]2C(=O)N[C@H]3C(=O)N[C@H](C(=O)N[C@H](C(=O)O)c4cc(O)cc(O)c4-c4cc3ccc4O)[C@H](O)c3ccc(c(Cl)c3)Oc3cc2cc(c3O[C@@H]2O[C@H](CO)[C@@H](O)[C@H](O)[C@H]2O[C@H]2C[C@](C)(N)[C@H](O)[C@H](C)O2)Oc2ccc(cc2Cl)[C@H]1O [VAN, vancomycin]
- MBC ([1]; MSSA): 0.5 µg/mL (≈ 0.345 µM)
- MIC ([1]; MSSA): 0.5 µg/mL (≈ 0.345 µM)
- MBC ([2]; MSSA): 0.5 µg/mL (≈ 0.345 µM)
- MIC ([2]; MSSA): 0.5 µg/mL (≈ 0.345 µM)
- MBC ([3]; MRSA): 0.5 µg/mL (≈ 0.345 µM)
- MIC ([3]; MRSA): 0.5 µg/mL (≈ 0.345 µM)
- MBC ([4]; MRSA): 0.5 µg/mL (≈ 0.345 µM)
- MIC ([4]; MRSA): 0.5 µg/mL (≈ 0.345 µM)
- MBC ([5]; MSSA): 0.5 µg/mL (≈ 0.345 µM)
- MIC ([5]; MSSA): 0.5 µg/mL (≈ 0.345 µM)
- MBC ([6]; MSSA): 0.5 µg/mL (≈ 0.345 µM)
- MIC ([6]; MSSA): 0.5 µg/mL (≈ 0.345 µM)
- MBC ([7]; MSSA): 0.5 µg/mL (≈ 0.345 µM)
- MIC ([7]; MSSA): 0.5 µg/mL (≈ 0.345 µM)
- MBC [8]: 0.5 µg/mL (≈ 0.345 µM)
- MIC [8]: 0.5 µg/mL (≈ 0.345 µM)
- MIC [9]: 0.5 µg/mL (≈ 0.345 µM)
- survival of infected mice at Day 7 [14]: had survived at Day 7
